# Experimental data as given in publication PMC3056319 (Journal of medicinal chemistry, 2011).
# Like-named read-outs stand apart in the source and are kept apart here.
# Tests used:
# [1] = target: T1, recombinant BoNT/A LC (Clostridium botulinum, UniProt P0DPI0); settings: cited from earlier work
# [2] = system: P. falciparum African D6 clone; test: microbe, parasite or virus in culture; format: cell-based; settings: Plasmodium falciparum, D6, read-out: Antimalarial activity IC50, D6
# [3] = system: P. falciparum multidrug resistant C235 strain (Thailand); test: microbe, parasite or virus in culture; format: cell-based
# [4] = system: P. falciparum Indochina W2 clone; test: microbe, parasite or virus in culture; format: cell-based
# [5] = target: T1, recombinant BoNT/A LC; format: biochemical, Closteridium botulinum
# [6] = system: EBOV; settings: cited from earlier work
# [7] = system: Vero76 cells; settings: African green monkey
# [8] = system: RAW 264.7 (rat macrophage) cell line; format: cell-based
# [9] = system: P. berghei (ANKA strain) sporozoites; parameters: species or system ICR mice (Mus musculus); settings: mouse, in vivo
# [10] = system: P. berghei (P Line); settings: mouse
# [11] = system: Recombinant Zaire Ebola virus (EBOV-eGFP); test: microbe, parasite or virus in culture; format: cell-based; settings: read-out: EBOV inhibition IC50
# T1 sequence (P0DPI0 2-448 limits assumed): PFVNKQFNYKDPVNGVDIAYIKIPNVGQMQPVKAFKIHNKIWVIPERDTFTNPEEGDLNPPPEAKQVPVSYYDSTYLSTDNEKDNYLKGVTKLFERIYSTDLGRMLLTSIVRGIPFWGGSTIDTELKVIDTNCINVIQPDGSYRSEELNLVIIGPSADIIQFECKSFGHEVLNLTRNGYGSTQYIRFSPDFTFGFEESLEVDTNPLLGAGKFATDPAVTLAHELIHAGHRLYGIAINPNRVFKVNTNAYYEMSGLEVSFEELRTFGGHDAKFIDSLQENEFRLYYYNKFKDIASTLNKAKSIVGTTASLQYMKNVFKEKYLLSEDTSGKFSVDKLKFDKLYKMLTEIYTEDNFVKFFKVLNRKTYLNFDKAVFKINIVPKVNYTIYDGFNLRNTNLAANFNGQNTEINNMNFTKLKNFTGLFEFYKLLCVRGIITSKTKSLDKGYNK
Structure (SMILES),Toxicity at 20 µM [7],cell toxicities in dose-response studies [7],Selectivity index (IC50) D6 [8],Selectivity index (IC50) W2 [8],Selectivity index (IC90) C235 [8],Selectivity index (IC90) D6 [8],Selectivity index (IC90) W2 [8],Resistance index (RI) W2/D6 [4],also measured
"CCN(CC)CCCC(C)Nc1ccnc2cc(Cl)ccc12 (stereo not drawn) [CQ, chloroquine, reference compound]",–,–,–,–,–,–,–,–,"BoNT/A LC inhibition [1]: weakly inhibit the BoNT/A LC; IC50 [2]: 0.0123 µM; IC50 ([3]; Plasmodium falciparum, read-out: Antimalarial activity IC50, C235): 0.139 µM; IC50 ([4]; Plasmodium falciparum, W2, read-out: Antimalarial activity IC50, W2): 0.456 µM"
"Cc1cc(NCCCN)c2ccc3c(ccc4c(NCCCN)cc(C)nc43)c2n1.Cl [Compound 7, N,N'-bis(3-aminopropyl)-3,9-dimethylquino[8,7-h]quinoline-1,7-diamine tetrahydrochloride]",–,–,–,–,–,–,–,–,type of inhibition kinetics [5]: competitive inhibitors
"Cc1cc(NCCN)c2ccc3c(ccc4c(NCCN)cc(C)nc43)c2n1.Cl [Compound 8, N,N'-bis(2-aminoethyl)-3,9-dimethylquino[8,7-h]quinoline-1,7-diamine tetrahydrochloride]",–,–,–,–,–,–,–,–,type of inhibition kinetics [5]: competitive inhibitors
"Cc1cc(NCCCN(C)C)c2ccc3c(ccc4c(NCCCN(C)C)cc(C)nc43)c2n1.Cl [Compound 9, N,N'-bis[3-(dimethylamino)propyl]-3,9-dimethylquino[8,7-h]quinoline-1,7-diamine tetrahydrochloride]",–,–,–,–,–,–,–,–,anti-EBOV efficacy in vivo [6]: possesses anti-EBOV efficacy in vivo with no toxicity
"CCN(CC)CCNc1cc(C)nc2c1ccc1c2ccc2c(NCCN(CC)CC)cc(C)nc21.Cl [Compound 11, N,N'-bis[2-(diethylamino)ethyl]-3,9-dimethylquino[8,7-h]quinoline-1,7-diamine tetrahydrochloride]",<20%,< 25%,1555.41; 1189.46,2686.21; 1058.99,281.66; 2827.70,1555.41; 1189.46,2686.21; 1058.99,0.57/0.55,"Resistance index (RI) C235/D6 [3]: 0.57/0.55; delay of parasite patency relative to control mice [9]: 1 to 2 days; delayed patency [9]: 1 days; causal prophylactic protection ([9]; po): does not provide prophylactic protection; toxicity in vivo ([10]; ICR, po): >60; >60; no toxicity in vivo; in vivo clinical toxicity [10]: No evidence of in vivo clinical toxicity; day of succumbing to infection (post-parasite inoculation), non-cured mice ([10]; in vivo): 13 to 21 days; mice cured (negative blood smear on day 31 post-infection) ([10]; in vivo): cured one mouse out of five tested; IC50 [11]: 5 to 10 µM"
"Cc1cc(NCCCN2CCCCC2)c2ccc3c(ccc4c(NCCCN5CCCCC5)cc(C)nc43)c2n1.Cl [Compound 14, 3,9-dimethyl-N,N'-bis(3-piperidin-1-ylpropyl)quino[8,7-h]quinoline-1,7-diamine tetrahydrochloride]",<20%,< 25%,–,–,–,–,–,–,–
"Cc1cc(NCCCN2CCOCC2)c2ccc3c(ccc4c(NCCCN5CCOCC5)cc(C)nc43)c2n1.Cl [Compound 16, 3,9-dimethyl-N,N'-bis(3-morpholin-4-ylpropyl)quino[8,7-h]quinoline-1,7-diamine tetrahydrochloride]",<20%,< 25%,1430.40; 1302.12,3740.50; 1728.68,929.32; 635.31,1430.40; 1302.12,3740.50; 1728.68,0.38/1.54,"Selectivity index (IC50) C235 [8]: 929.32; 635.31; IC50 ([11]; Zaire ebolavirus, Vero 76, 48 h): ~5 µM; IC50 [11]: 2.5 to 5 µM"
"Cc1cc(NCCN2CCOCC2)c2ccc3c(ccc4c(NCCN5CCOCC5)cc(C)nc43)c2n1.Cl [Compound 17, 3,9-dimethyl-N,N'-bis(2-morpholin-4-ylethyl)quino[8,7-h]quinoline-1,7-diamine tetrahydrochloride]",–,–,1715.68; 2374.36,1662.42; 2601.48,1033.94; 1815.35,1715.68; 2374.36,1662.42; 2601.48,1.03/1.66,Resistance index (RI) C235/D6 [3]: 1.03/1.66; Selectivity index (IC50) C235 [8]: 1033.94; 1815.35
